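Cultured in 96-well plates, cells were exposed to test compound for 48 hours across five concentrations. GI50 marks 50% less growth. TGI is the concentration that stops growth completely.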

Test systems include DU-145 prostate; HOP-92 NSCLC; OVCAR-4 ovarian; RPMI-8226 leukemia; HCT-116 colon; EKVX NSCLC; NCI-H226 lung; MCF7 breast; CCRF-CEM leukemia; PC-3 prostate.
Holding throughout (assay): inhibition of tumour cell growth, NCI panel, 48 h

For `CCOC(=O)c1[nH]c2cc(Cl)ccc2c1[C@@H](C(=O)NC(C)(C)C)N(CC)C(=O)CCCCC#Cc1cccc2c1CN(C1CCC(=O)NC1=O)C2=O` (some centres undefined), the GI50 in the experiment on DU-145 prostate is 3.06 µM; in the experiment on HOP-92 NSCLC it was less than 0.01 µM; with OVCAR-4 ovarian, less than 0.01 µM; in the experiment on RPMI-8226 leukemia, 0.185 µM; in the experiment with HCT-116 colon it was 2.55 µM; with EKVX NSCLC it was 1.39 µM. Besides, the GI50 was 0.0343 µM in the experiment on NCI-H226 lung, 0.117 µM in the experiment with MCF7 breast, less than 0.01 µM in the experiment with CCRF-CEM leukemia and less than 0.01 µM with PC-3 prostate. In addition, the TGI with DU-145 prostate was 46.8 µM; in the experiment on HOP-92 NSCLC, less than 0.0238 µM; with OVCAR-4 ovarian, 23.5 µM; in the experiment with RPMI-8226 leukemia, 2.88 µM; in the experiment on HCT-116 colon, 18.5 µM; with EKVX NSCLC, 45.5 µM. Further, the TGI is greater than 100 µM with MCF7 breast, greater than 100 µM in the experiment with CCRF-CEM leukemia and 9.36 µM in the experiment on PC-3 prostate.

With `CCOC(=O)C(=Cc1ccc(C#N)cc1)C(=O)OCC`, the GI50 was 3.04 µM with DU-145 prostate; 1.63 µM in the experiment on HOP-92 NSCLC; 3.44 µM in the experiment on OVCAR-4 ovarian; 2.65 µM with RPMI-8226 leukemia; 2.15 µM with HCT-116 colon; 4.83 µM with EKVX NSCLC. Further, the GI50 in the experiment with NCI-H226 lung is 2.51 µM; in the experiment with MCF7 breast it was 2.07 µM; in the experiment on CCRF-CEM leukemia it was 3 µM; in the experiment with PC-3 prostate, 2.28 µM. Moreover, the TGI is 10.3 µM in the experiment on DU-145 prostate; 4.26 µM in the experiment with HOP-92 NSCLC; 12.6 µM in the experiment on OVCAR-4 ovarian; 7.71 µM in the experiment on RPMI-8226 leukemia; 4.22 µM in the experiment with HCT-116 colon; 17.6 µM with EKVX NSCLC. Also, the TGI in the experiment on NCI-H226 lung turned out to be 6.33 µM; in the experiment on MCF7 breast, 7.61 µM; in the experiment on CCRF-CEM leukemia, 9.32 µM; with PC-3 prostate, 4.9 µM.

As to `COc1nc(N)nc2c1ncn2C1CC(O)C(CO)O1` (centres undefined), the TGI in the experiment with DU-145 prostate, in the experiment with HOP-92 NSCLC, with OVCAR-4 ovarian, in the experiment with RPMI-8226 leukemia, in the experiment on HCT-116 colon and with EKVX NSCLC was greater than 100 µM in each case. In addition, the TGI in the experiment with NCI-H226 lung, in the experiment on MCF7 breast, in the experiment on CCRF-CEM leukemia and in the experiment with PC-3 prostate was greater than 100 µM each time.

The values above are taken from PubChem BioAssay (NCI).
